Reference: article PMC8006935, “Study of Combinatorial Drug Synergy of Novel Acridone Derivatives With Temozolomide Using in-silico and in-vitro Methods in the Treatment of Drug-Resistant Glioma” (Frontiers in Oncology, 2021)
Like-named read-outs stand apart in the source and are kept apart here.

Tests used:
[1] = earlier studies, no reference given; cited from earlier work
[2] = system: T-98 (Temozolomide resistant) Glioma cell lines; assay: Sulforhodamine B assay, T-98 TMZ resistant Glioma cells; format: cell-based; conditions: for IC50: Glioma cell; for T-98/TMZRES SI: SI = CC50 of Vero cell line /IC50 of Cancer cell line after 72 h
Procedure: In order to test the growth inhibition potential of the TMZ and Acridone derivatives on Glioma, the U-87 (Uppsala 87) Glioma cell lines and T-98 (Temozolomide resistant) Glioma cell lines were treated with Temozolomide (TMZ) and Acridone derivatives AC2, AC7, and AC26. The African Green Monkey Kidney Vero cell lines were used as control for the study. The Vero cell lines were obtained from the National Center for Cell Sciences (NCCS), Pune, while the U-87 and T-98 cell lines were carried in the lab of Dr. GJ Peters, Cancer Center Amsterdam (CCA), VU University Medical Center, Amsterdam, Netherlands. The Mycoplasma testing was done by using the Universal Mycoplasma Detection Kit (ATCC® 30-1012K™) every 6 months. The Vero cell lines have been used as control as they are normal kidney epithelial cells and are non-cancerous in nature. The Vero cell lines have been routinely used for testing cytotoxicity of small molecules by various researchers ([22], [23]). Also, in our previous study, Vero cell lines have been used for testing safety and efficacy of Acridone derivatives for Lung, Cervical, and Breast Cancer studies ([13]).
Cell viability was found using the Sulforhodamine B (SRB) assay to measure the cellular protein content which provides better sensitivity in comparison to MTT assay ([24]). Moreover, as this method is dependent on the property of the SRB dye, it acts by binding to proteins under slightly acidic conditions and can be exposed to basic conditions for its extraction. The resulting amount of bound dye is then utilized as a proxy for cell mass ([25]). This cell mass can then be extrapolated to measure cell growth.
Glioma cells were cultured in Gibco (RPMI 1640) complemented with 10% fetal calf serum (Gibco). The cultures were then treated with trypsin-EDTA in order to detach/separate the cells from their culture flasks. The quickly proliferating cells were harvested, counted and plated at suitable concentrations in 96-well microplates. These microplates were subsequently incubated for 24 h. After incubation, drug compounds were dissolved in the culture media and placed in 96 well plates in triplicates, which were again incubated at 37°C under 5% CO2 for 72 h. 72 h later, the plates were removed and the cells were treated with cold Trichloroacetic acid (TCA) to fix the cultures and. 0.4% of SRB dissolved in 1% acetic acid was then added to the culture in order to stain the cells. Next, the bound stain was dissolved in 150 μl of 10 mM unbuffered Tris base left on a gyrator shaker. Thereafter, absorbance of the solution was measured at 540 nm utilizing a microplate reader. Absorbance readings (triplicate values) recorded were used to calculate percentage growth inhibition due to the effect of drugs using the following equations.
% Cell growth = Absorbance sample/Absorbance of control or untreated × 100
% Growth inhibition = 100 - % cell growth
The IC50 was calculated based on the log graph sheet which was developed in-house at the CCA, VU University Medical Center.
Selectivity Index (SI) is a ratio that measures the window between cytotoxicity and anticancer activity of the drugs ([26]). […] Here, IC50 is the inhibition concentration for inhibiting 50% of cancer cells and CC50 is cytotoxic concentration causing death of 50% viable cells in the host.

[3] = pKa by UV-Vis spectrophotometer; format: physicochemical
Procedure: Characterization of acridone derivatives AC2, AC7, and AC26 were carried out by using all the chemicals of analytical grade. Hydrochloric acid and sodium hydroxide were procured from Sisco Research Lab Pvt. Ltd (Mumbai, India). Potassium dihydrogen orthophosphate, methanol and ortho-phosphoric acid (85% pure) was received from Loba Chemie Pvt. Ltd. (Mumbai, India). Sodium chloride was received from SD Fine-Chem Limited (Mumbai, India). Milli-pore water was used throughout the study. Chemical information like the molecular weight of compounds was determined by obtaining ESI-MS spectroscopy using methanol as solvent. pH calculated by using pH analyzer (Lab India) and PKa determined by using UV-Vis spectrophotometer (Shimadzu, Japan). Melting point was calculated by Digital Melting point apparatus (Veego India). Lipophilicity was determined by using software like Chem Draw 15 and ALGOPS 2.1 ([16]). In order to determine the Blood Brain Barrier (BBB) permeability of the compounds, we have used Online BBB Predictor (https://www.cbligand.org/BBB/predictor.php) using SVM Machine Learning algorithm and PubChem as the fingerprint ([17]).

[4] = 72 h, SRB, Mean ± Standard Deviations in Table 4, read-out: T-98/TMZRES IC50
[5] = drug administered individually, drug resistant cells, read-out: Initial IC50

In the case of `O=C(NN=CC=Cc1ccccc1)c1cccc2c(=O)c3ccccc3[nH]c12` [AC2, 9-oxo-N'-(3-phenylallylidene)-9,10-dihydroacridine-4-carbohydrazide], the “cardiotoxicity, nephrotoxicity and necrosis” value [1] is given as “no cardiotoxicity, nephrotoxicity and necrosis”, the liver histopathology [1] is given as “minimal hyperchromatic, anaplasia, and cellular infiltration” and the IC50 [2, 4] is given as 1530 ± 250 nM. The IC50 [2, 5] was 1530 nM, the “T-98/TMZRES SI” value [2] was 36.73 and the pKa [3] was 8.03.
In the case of `O=C(NN=Cc1ccccc1Cl)c1cccc2c(=O)c3ccccc3[nH]c12` [AC7, N'-(2-chlorobenzylidene)-9-oxo-9,10-dihydroacridine-4-carbohydrazide], the “cardiotoxicity, nephrotoxicity and necrosis” value [1] is given as “no cardiotoxicity, nephrotoxicity and necrosis”, the liver histopathology [1] is given as “minimal hyperchromatic, anaplasia, and cellular infiltration” and the IC50 [2, 4] is given as 1050 ± 180 nM. For the same compound, the IC50 [2, 5] was 1050 nM, the “T-98/TMZRES SI” value [2] was 45.87 and the pKa [3] was 9.23.
For `CC(=NNC(=O)c1cccc2c(=O)c3ccccc3[nH]c12)c1ccccc1O` [AC26, N'(1-(2-hydroxyphenyl)ethylidene)-9-oxo-9,10-dihydroacridine-4-carbohydrazide], the “cardiotoxicity, nephrotoxicity and necrosis” value [1] is given as “no cardiotoxicity, nephrotoxicity and necrosis”, the liver histopathology [1] is given as “minimal hyperchromatic, anaplasia, and cellular infiltration” and the IC50 [2, 4] is given as 760 ± 53 nM. The IC50 [2, 5] was 760 nM, the “T-98/TMZRES SI” value [2] was 86.94 and the pKa [3] was 6.52.
